Article PMC2119350 (The Journal of Experimental Medicine, 1992)

How the values were obtained:
I-Ed = I-Ed (Mus musculus, UniProt P01904+P01915); details: pH 5 as compared with pH 7; cited from earlier work
I-Ak = I-Ak (Mus musculus, UniProt P01910+P06343); assay: Peptide binding immunoassay; details: 250 μM unlabeled HEL(46-61) vs biotin-HEL(46-61), 68 h

Q: For GMNAWVAWRNR.CKGTDVY [HEL(104-120)], which apparent affinity (I-Ed) is on record?
A: The apparent affinity was “increased”.

Q: What about the “apparent concentration (number) of peptide-binding sites” value (I-Ed) of the same substance?
A: The value was “increased”.

Q: What about the effect on dissociation (I-Ed) of the same substance?
A: Its effect on dissociation is “no measurable effect”.

Q: What about the rate of association (I-Ed) of the same substance?
A: Its rate of association is “increased”.

Q: For NTDGSTDYGILQINSR [HEL(46-61)], which “nonspecific signal remaining with unlabeled competitor” value (I-Ak) is on record?
A: The value was < 10 % of maximal absorbance.
